Reference: ChEMBL document CHEMBL1201862, “PubChem BioAssay data set” (2004)
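How tested: cells in 96-well plates exposed to compound for 48 hours at five concentrations. GI50 is the concentration that inhibits growth by half.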 Activity calls are given as the source filed them. Rule as the data show it: active = GI50 up to about 1.1 µM and inactive = higher.

Assays:
Assay in all cases: DTP human tumour cell line panel, 48 h
OVCAR-4 = test system: OVCAR-4
A498 = test system: A498
LOX IMVI = test system: LOX IMVI
CAKI-1 = test system: CAKI-1
K562 = test system: K562
Malme-3M = test system: Malme-3M
NCI-H460 = test system: NCI-H460
HCT-116 = test system: HCT-116
A549 = test system: A549
COLO 205 = test system: COLO 205
SR = test system: SR
NCI-H23 = test system: NCI-H23
EKVX = test system: EKVX
SK-OV-3 = test system: SK-OV-3
HOP-92 = test system: HOP-92
UO-31 = test system: UO-31
NCI/ADR-RES = test system: NCI/ADR-RES
U-251 = test system: U-251

| Compound | GI50 (OVCAR-4) | GI50 (A498) | GI50 (LOX IMVI) | GI50 (CAKI-1) | GI50 (K562) | GI50 (Malme-3M) | GI50 (NCI-H460) | GI50 (HCT-116) | GI50 (A549) | GI50 (COLO 205) | GI50 (SR) | GI50 (NCI-H23) | GI50 (EKVX) | GI50 (SK-OV-3) | GI50 (HOP-92) | GI50 (UO-31) | GI50 (NCI/ADR-RES) | GI50 (U-251) |
| --- | --- | --- | --- | --- | --- | --- | --- | --- | --- | --- | --- | --- | --- | --- | --- | --- | --- | --- |
| CCOC(=O)C1=C(C)NC(=O)NC1c1coc2cc(C)cc(C)c2c1=O (stereo not drawn) | 55.3 µM (inactive) | > 100 µM (inactive) | 69.2 µM (inactive) | > 100 µM (inactive) | 30.7 µM (inactive) | 13 µM (inactive) | 25.9 µM (inactive) | 36.9 µM (inactive) | 46.9 µM (inactive) | 54.6 µM (inactive) | 10.2 µM (inactive) | > 86.7 µM (inactive) | 31.6 µM (inactive) | > 66.5 µM (inactive) | > 74.3 µM (inactive) | 44 µM (inactive) | 27.5 µM (inactive) | 32.1 µM (inactive) |
| O=C1OC(OC/C(Br)=C(\Br)COC2OC(=O)C(Cl)=C2Cl)C(Cl)=C1Cl (stereo not drawn) | 7.6 µM (inactive) | 19.5 µM (inactive) | 2.58 µM (inactive) | 2.26 µM (inactive) | 1.14 µM (inactive) | 2.55 µM (inactive) | 13.2 µM (inactive) | 1.86 µM (inactive) | 14.9 µM (inactive) | 1.67 µM (inactive) | 0.9 µM (active) | 3.18 µM (inactive) | 9.57 µM (inactive) | 22.2 µM (inactive) | 1.05 µM (active) | 3.18 µM (inactive) | 4.92 µM (inactive) | 4.58 µM (inactive) |
| CC(C)CCC1(CCN)C(=O)NC(=O)NC1=O | > 100 µM (inactive) | > 100 µM (inactive) | > 100 µM (inactive) | > 100 µM (inactive) | 16.3 µM (inactive) | > 100 µM (inactive) | > 100 µM (inactive) | > 100 µM (inactive) | > 100 µM (inactive) | > 100 µM (inactive) | 6.68 µM (inactive) | > 100 µM (inactive) | > 100 µM (inactive) | > 100 µM (inactive) | > 100 µM (inactive) | > 100 µM (inactive) | > 100 µM (inactive) | > 100 µM (inactive) |
| Cc1ccc2c(c1)nc1n2C(N)=Nc2ccccc2S1 | > 100 µM (inactive) | 49.1 µM (inactive) | 3.51 µM (inactive) | > 100 µM (inactive) | 5.79 µM (inactive) | > 100 µM (inactive) | 5.92 µM (inactive) | 4.4 µM (inactive) | 25.4 µM (inactive) | 14.8 µM (inactive) | 4.7 µM (inactive) | 28.7 µM (inactive) | 36.4 µM (inactive) | > 100 µM (inactive) | > 40.6 µM (inactive) | 50.4 µM (inactive) | 43.4 µM (inactive) | > 27.9 µM (inactive) |
| CCC1=NC(N/N=C/c2ccccc2O)=N/C1=C\c1ccccc1O | 5.6 µM (inactive) | 26.7 µM (inactive) | 5.61 µM (inactive) | 19.6 µM (inactive) | 12.2 µM (inactive) | 12.4 µM (inactive) | 2.57 µM (inactive) | 7.59 µM (inactive) | 12.9 µM (inactive) | 13.3 µM (inactive) | 27.9 µM (inactive) | 14.4 µM (inactive) | 10.2 µM (inactive) | 12.4 µM (inactive) | 21.1 µM (inactive) | 2.7 µM (inactive) | 2.68 µM (inactive) | 19.3 µM (inactive) |
| N#C[C@](CO)(NC(=O)OCc1ccccc1)C(F)F | > 100 µM (inactive) | > 100 µM (inactive) | > 100 µM (inactive) | > 100 µM (inactive) | > 100 µM (inactive) | > 100 µM (inactive) | > 100 µM (inactive) | > 100 µM (inactive) | > 100 µM (inactive) | > 100 µM (inactive) | > 100 µM (inactive) | > 100 µM (inactive) | > 100 µM (inactive) | > 100 µM (inactive) | > 100 µM (inactive) | > 100 µM (inactive) | > 100 µM (inactive) | > 100 µM (inactive) |
| CC1=CC23C(COC(=O)C24CO4)C(C(=O)O)=CC3C1C (stereo not drawn) | 15.2 µM (inactive) | 23.3 µM (inactive) | 17 µM (inactive) | 9.79 µM (inactive) | 4.85 µM (inactive) | 6 µM (inactive) | 18.2 µM (inactive) | 16 µM (inactive) | 26.1 µM (inactive) | 24.7 µM (inactive) | 17.1 µM (inactive) | 27.1 µM (inactive) | 40.4 µM (inactive) | 4.65 µM (inactive) | 8.24 µM (inactive) | 27.3 µM (inactive) | 15.3 µM (inactive) | 11.5 µM (inactive) |
| CC(C)(C)OC(=O)Cn1ncn(NC(=O)Cc2ccccc2)c1=S | > 10 µM (inactive) | > 10 µM (inactive) | > 10 µM (inactive) | > 10 µM (inactive) | > 10 µM (inactive) | > 10 µM (inactive) | > 10 µM (inactive) | > 10 µM (inactive) | > 10 µM (inactive) | > 10 µM (inactive) | > 10 µM (inactive) | > 10 µM (inactive) | > 10 µM (inactive) | > 10 µM (inactive) | > 10 µM (inactive) | > 10 µM (inactive) | > 10 µM (inactive) | > 10 µM (inactive) |
| COc1ccc(C2NC(=O)Nc3c2c(=O)oc2c3ccc3ccccc32)cc1 (stereo not drawn) | 48 µM (inactive) | 31.4 µM (inactive) | 74.6 µM (inactive) | 52.8 µM (inactive) | 48.1 µM (inactive) | 68.9 µM (inactive) | 50.8 µM (inactive) | 75.9 µM (inactive) | 48.4 µM (inactive) | > 100 µM (inactive) | 50 µM (inactive) | 52.6 µM (inactive) | 23.7 µM (inactive) | > 100 µM (inactive) | 35.2 µM (inactive) | 52.7 µM (inactive) | 69.5 µM (inactive) | 36.7 µM (inactive) |
| CCN1CCN(c2nc3ccccc3nc2C(=O)c2ccc(OC)cc2)CC1 | 57.5 µM (inactive) | 37.1 µM (inactive) | 24.8 µM (inactive) | 39.8 µM (inactive) | 43.9 µM (inactive) | 16.5 µM (inactive) | 21.5 µM (inactive) | 6.07 µM (inactive) | 23.8 µM (inactive) | > 100 µM (inactive) | 11.7 µM (inactive) | 27 µM (inactive) | 47.1 µM (inactive) | > 100 µM (inactive) | 18.3 µM (inactive) | 19.7 µM (inactive) | 45.1 µM (inactive) | 39.4 µM (inactive) |
| COc1ccc(-c2cc(-c3ccc(Nc4ccnc5cc(Cl)ccc45)cc3)[nH]c(=O)c2C#N)c2ccccc12 | 1.79 µM (inactive) | 23.3 µM (inactive) | 1.36 µM (inactive) | 9.46 µM (inactive) | 2.37 µM (inactive) | 2.23 µM (inactive) | 11.1 µM (inactive) | 2.16 µM (inactive) | 18.1 µM (inactive) | 2.44 µM (inactive) | 0.413 µM (active) | 20.3 µM (inactive) | > 77.1 µM (inactive) | 20.9 µM (inactive) | 3.84 µM (inactive) | 5.32 µM (inactive) | > 100 µM (inactive) | 1.87 µM (inactive) |
